Assays:
[1] = tested on: TGFβ/SMAD Signaling Pathway SBE reporter cell line; assay: TGFβ reporter assay, in vitro small molecule screening (luciferase); format: cell-based; conditions: TGFβ stimulation, luminescence
Summary of the method: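 SBE luciferase reporter cells (~0.5×10^6 cells/mL) preincubated with compound 5-6 h at 37 °C in 0.5% FBS MEM, then stimulated with TGFβ (12 ng/mL stock) for 18 h. Luminescence read after luciferase substrate; EC50 from curve fits.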

TGFBR2 = target: T1, TGFBR2 (Homo sapiens, UniProt P37173); assay: TGFBR2 RBC assay (enzyme inhibition assay, Reaction Biology Corp.); format: biochemical
T1 construct: purchased Reaction Biology Corp
Protocol: Compounds of the disclosure were also assayed by Reaction Biology Corp. using the TGFBR2 RBC assay (enzyme inhibition assay). […] NT refers to not tested.

T1 sequence (P37173 23-567): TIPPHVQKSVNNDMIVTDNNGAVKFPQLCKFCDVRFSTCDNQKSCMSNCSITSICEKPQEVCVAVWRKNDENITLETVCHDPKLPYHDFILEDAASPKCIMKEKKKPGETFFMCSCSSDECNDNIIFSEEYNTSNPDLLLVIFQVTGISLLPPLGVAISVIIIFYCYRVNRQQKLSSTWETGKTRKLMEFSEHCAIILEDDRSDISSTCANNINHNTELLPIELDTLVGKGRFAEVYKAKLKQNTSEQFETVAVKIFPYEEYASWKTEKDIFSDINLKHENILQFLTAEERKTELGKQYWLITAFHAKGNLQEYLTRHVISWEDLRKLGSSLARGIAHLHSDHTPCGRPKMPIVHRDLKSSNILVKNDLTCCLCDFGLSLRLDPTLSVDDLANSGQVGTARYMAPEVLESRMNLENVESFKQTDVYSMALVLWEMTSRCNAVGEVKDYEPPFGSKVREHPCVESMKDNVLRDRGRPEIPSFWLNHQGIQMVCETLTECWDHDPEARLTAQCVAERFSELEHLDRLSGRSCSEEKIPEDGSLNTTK

| SMILES | EC50 [1] [nM] | IC50 (TGFBR2) [nM] |
| --- | --- | --- |
| Nc1ncc(-c2ccc(CCNC(=O)OCc3ccccc3)cc2)nc1C(=O)Nc1cnccc1N1CCS(=O)(=O)CC1 [Compound 52] | 100 to 1000 | > 1000 |
| Nc1ncc(-c2ccc(CCNC(=O)CCC(=O)c3ccccc3)cc2)nc1C(=O)Nc1cnccc1N1CCOCC1 [Compound 54] | 50 to 100 | < 50 |
| CCc1nccn1-c1ccncc1NC(=O)c1nc(-c2ccc(CCN)cc2)cnc1N [Compound 140] | > 1000 | < 50 |
| Nc1ncc(-c2ccc3c(c2)CCNC3=O)nc1C(=O)Nc1cnccc1N1CCOCC1 [Compound 201] | 100 to 1000 | 100 to 1000 |
| Nc1ncc(-c2ccc3c(c2)CCC3N)nc1C(=O)Nc1cnccc1N1CCOCC1 (centres unmarked) [Compound 220] | 100 to 1000 | < 50 |
| NCCc1cc(F)c(-c2cnc(N)c(C(=O)Nc3cnccc3N3CCOCC3)n2)c(F)c1 [Compound 57] | 100 to 1000 | 100 to 1000 |
| NCCc1ccc(-c2cnc(N)c(C(=O)Nc3cnccc3-c3ccncc3)n2)cc1 [Compound 129] | 100 to 1000 | 50 to 100 |
| Nc1ncc(-c2ccc(Cl)cc2)nc1C(=O)Nc1cnccc1N1CCOCC1 [Compound 160] | 100 to 1000 | < 50 |
| Nc1nc(-c2ccc(CCC(=O)N3CCN(C(=O)OCc4ccccc4)CC3)cc2)cnc1C(=O)Nc1cnccc1N1CCOCC1 [Compound 86] | 100 to 1000 | < 50 |
| CC1NCCc2cc(-c3cnc(N)c(C(=O)Nc4cnccc4N4CCOCC4)n3)ccc21 (centres unmarked) [Compound 234] | 100 to 1000 | < 50 |
| CC(C)(C)OC(=O)N[C@H]1C[C@H](Oc2ccc(-c3cnc(N)c(C(=O)Nc4cnccc4N4CCOCC4)n3)cc2)C1 [Compound 221] | < 50 | < 50 |
| Nc1ncc(-c2ccc3c(c2)CCC(O)C3)nc1C(=O)Nc1cnccc1N1CCOCC1 (centres unmarked) [Compound 249] | 100 to 1000 | < 50 |
| NCCc1ccc(-c2cnc(N)c(C(=O)Nc3cnccc3N3CCOCC3)n2)cn1 [Compound 125] | > 1000 | 100 to 1000 |
| COC1CCN(c2ccncc2NC(=O)c2nc(-c3ccc(CCNC(=O)OCc4ccccc4)cc3)cnc2N)C1 (centres unmarked) [Compound 53] | > 1000 | > 1000 |
| CC(C)(C)OC(=O)N[C@@H](CO)Cc1ccc(-c2cnc(N)c(C(=O)Nc3cnccc3N3CCOCC3)n2)cc1 [Compound 199] | > 1000 | < 50 |
| C[C@H](NC(=O)OCC1c2ccccc2-c2ccccc21)C(=O)NCc1ccc(-c2cnc(N)c(C(=O)Nc3cnccc3N3CCOCC3)n2)cc1 [Compound 105] | 100 to 1000 | 100 to 1000 |
| CC(N)COc1cccc(-c2cnc(N)c(C(=O)Nc3cnccc3N3CCOCC3)n2)c1 (centres unmarked) [Compound 194] | 100 to 1000 | < 50 |
| NCCc1ccc(-c2cnc(N)c(C(=O)Nc3cnccc3N3CCOCC3)n2)cc1 [Compound 6] | 50 to 100 | < 50 |
| Nc1ncc(-c2ccc(CN3CCNCC3=O)cc2)nc1C(=O)Nc1cnccc1N1CCOCC1 [Compound 87] | 50 to 100 | < 50 |
| Nc1ncc(-c2ccc(CCNC(=O)OCc3ccccc3)cc2)nc1C(=O)Nc1cnccc1-c1ccncc1 [Compound 5.1, Benzyl (4-(6-([4,4′-bipyridin]-3-ylcarbamoyl)-5-aminopyrazin-2-yl)phenethyl)carbamate] | 100 to 1000 | < 50 |

| SMILES | EC50 [1] [nM] | IC50 (TGFBR2) [nM] |
| --- | --- | --- |
| NCCc1ccc(-c2cnc(N)c(C(=O)Nc3cnc4ccccc4c3N3CCOCC3)n2)cc1 [Compound 130] | > 1000 | > 1000 |
| COCCCN(C)c1ccncc1NC(=O)c1nc(-c2ccc(CCN)cc2)cnc1N [Compound 103] | 100 to 1000 | < 50 |
| Nc1ncc(-c2ccc(O[C@@H]3CCCNC3)cc2)nc1C(=O)Nc1cnccc1N1CCOCC1 [Compound 168] | 50 to 100 | < 50 |
| Nc1ncc(-c2ccc(O[C@@H]3CCCN(C(=O)OCc4ccccc4)C3)cc2)nc1C(=O)Nc1cnccc1N1CCOCC1 [Compound 163] | 100 to 1000 | 100 to 1000 |
| NCCNC(=O)Cc1ccc(-c2cnc(N)c(C(=O)Nc3cnccc3N3CCOCC3)n2)cc1 [Compound 80] | 100 to 1000 | 50 to 100 |
| COc1cccc(-c2ccncc2NC(=O)c2nc(-c3ccc(CCNC(=O)OCc4ccccc4)cc3)cnc2N)c1 [Compound 24] | 100 to 1000 | 100 to 1000 |
| CC(C)(C)OC(=O)NC1CCc2cc(-c3cnc(N)c(C(=O)Nc4cnccc4N4CCOCC4)n3)ccc21 (centres unmarked) [Compound 215] | 100 to 1000 | < 50 |
| CC(C)(C)OC(=O)N[C@H]1C[C@@H](Oc2ccc(-c3cnc(N)c(C(=O)Nc4cnccc4N4CCOCC4)n3)cc2)C1 [Compound 223] | 100 to 1000 | < 50 |
| COc1ccc(-c2cnc(N)c(C(=O)Nc3cnccc3N3CCOCC3)n2)c(OC)c1 [Compound 157] | 100 to 1000 | 100 to 1000 |
| Nc1ncc(-c2ccc(CCNC(=O)OCc3ccccc3)cc2)nc1C(=O)Nc1cnc(F)cc1N1CCOCC1 [Compound 236] | > 1000 | < 50 |
| NCC1CCc2cc(-c3cnc(N)c(C(=O)Nc4cnccc4N4CCOCC4)n3)ccc2N1 (centres unmarked) [Compound 244] | 100 to 1000 | < 50 |
| CC(=O)CCC(=O)NCCc1ccc(-c2cnc(N)c(C(=O)Nc3cnccc3N3CCOCC3)n2)cc1 [Compound 51] | 50 to 100 | < 50 |
| Nc1ncc(-c2ccc(CCNC(=O)OCc3ccccc3)cc2)nc1C(=O)Nc1cncc(-c2ccccc2[N+](=O)[O-])c1 [Compound 144] | > 1000 | < 50 |
| CC(C)(C)OC(=O)N[C@H](Cc1ccc(-c2cnc(N)c(C(=O)Nc3cnccc3N3CCOCC3)n2)cc1)C(=O)O [Compound 196] | 100 to 1000 | < 50 |
| CC(C)(C)OC(=O)N1CCN(Cc2ccc(-c3cnc(N)c(C(=O)Nc4cnccc4N4CCOCC4)n3)cc2)CC1 [Compound 89] | 50 to 100 | < 50 |
| NCC1NCCc2cc(-c3cnc(N)c(C(=O)Nc4cnccc4N4CCOCC4)n3)ccc21 (centres unmarked) [Compound 235] | 100 to 1000 | < 50 |
| Nc1ncc(-c2ccc(CCNC(=O)OCc3ccccc3)cn2)nc1C(=O)Nc1cnccc1N1CCOCC1 [Compound 116] | 100 to 1000 | 100 to 1000 |
| NCCc1ccc(-c2cnc(N)c(C(=O)Nc3cnccc3-n3cncn3)n2)cc1 [Compound 187] | 100 to 1000 | < 50 |
| Cc1cnccc1-c1ccncc1NC(=O)c1nc(-c2ccc(CCNC(=O)OCc3ccccc3)cc2)cnc1N [Compound 32] | 50 to 100 | 100 to 1000 |
| Nc1ncc(-c2ccc(CNC(=O)[C@@H]3CCCN3)cc2)nc1C(=O)Nc1cnccc1N1CCOCC1 [Compound 110] | 100 to 1000 | < 50 |

| SMILES | EC50 [1] [nM] | IC50 (TGFBR2) [nM] |
| --- | --- | --- |
| CC(C)[C@H](NC(=O)OC(C)(C)C)C(=O)N1CCC[C@H]1C(=O)NCc1ccc(-c2cnc(N)c(C(=O)Nc3cnccc3N3CCOCC3)n2)cc1 [Compound 111] | 100 to 1000 | < 50 |
| NCc1ccc(-c2cnc(N)c(C(=O)Nc3cnccc3N3CCOCC3)n2)cc1 [Compound 7] | 50 to 100 | < 50 |
| Nc1ncc(-c2ccc(CCC(=O)N3CCNCC3)cc2)nc1C(=O)Nc1cnccc1N1CCOCC1 [Compound 88] | 50 to 100 | < 50 |
| Nc1ncc(-c2ccc(O[C@H]3CCCNC3)cc2)nc1C(=O)Nc1cnccc1N1CCOCC1 [Compound 169] | 50 to 100 | < 50 |
| Nc1ncc(-c2ccc(OC3CCN(C(=O)OCc4ccccc4)CC3)cc2)nc1C(=O)Nc1cnccc1N1CCOCC1 [Compound 166] | 100 to 1000 | 100 to 1000 |
| NCCCOc1ccc(-c2cnc(N)c(C(=O)Nc3cnccc3N3CCOCC3)n2)cc1 [Compound 65] | 100 to 1000 | < 50 |
| CC(C)(C)OC(=O)N1CCCc2cc(-c3cnc(N)c(C(=O)Nc4cnccc4N4CCOCC4)n3)ccc2C1 [Compound 228] | 100 to 1000 | 50 to 100 |
| COc1ccc(-c2cnc(N)c(C(=O)Nc3cnccc3N3CCOCC3)n2)cc1 [Compound 156] | 100 to 1000 | < 50 |
| CC1c2ccc(-c3cnc(N)c(C(=O)Nc4cnccc4N4CCOCC4)n3)cc2CCN1C(=O)OC(C)(C)C (centres unmarked) [Compound 225] | 100 to 1000 | 100 to 1000 |
| CC(C)(C)OC(=O)N[C@@H](Cc1ccc(-c2cnc(N)c(C(=O)Nc3cnccc3N3CCOCC3)n2)cc1)C(=O)O [Compound 207] | 100 to 1000 | < 50 |
| Nc1ncc(-c2ccc(CCNC(=O)OCc3ccccc3)cc2)nc1C(=O)Nc1cnccc1-c1ccnc2ccccc12 [Compound 19] | > 1000 | > 1000 |
| Nc1ncc(-c2ccc(CCNC(=O)OCc3ccccc3)cc2)nc1C(=O)Nc1cnccc1-n1cncn1 [Compound 188] | > 1000 | < 50 |
| Nc1ncc(-c2cccc3ccccc23)nc1C(=O)Nc1cnccc1N1CCOCC1 [Compound 253] | > 1000 | 100 to 1000 |
| CC(C)(C)OC(=O)NC1CCN(c2cnc(N)c(C(=O)Nc3cnccc3N3CCOCC3)n2)CC1 [Compound 122] | > 1000 | > 1000 |
| CC(C)(C)OC(=O)N1CCc2cc(-c3cnc(N)c(C(=O)Nc4cnccc4N4CCOCC4)n3)ccc2C1CN (centres unmarked) [Compound 230] | 50 to 100 | < 50 |
| Cc1nccn1-c1ccncc1NC(=O)c1nc(-c2ccc(CCNC(=O)OCc3ccccc3)cc2)cnc1N [Compound 3.1, Benzyl (4-(5-amino-6-((4-(2-methyl-1H-imidazol-1-yl)pyridin-3-yl)carbamoyl)pyrazin-2-yl)phenethyl)carbamate] | 100 to 1000 | < 50 |
| Nc1ncc(-c2ccc3c(c2)OCCN3)nc1C(=O)Nc1cnccc1N1CCOCC1 [Compound 217] | 100 to 1000 | < 50 |
| CNc1ncc(-c2ccc(OC(C)CN)cc2)nc1C(=O)Nc1cnccc1N1CCOCC1 (centres unmarked) [Compound 254] | > 1000 | > 1000 |

— patent US20220362396A1, “AMINO-PYRAZINECARBOXAMIDE COMPOUNDS, CONJUGATES, AND USES THEREOF” (Silverback Therapeutics, Inc., priority 2018, published 2022)
